This note sets out measurements from patent US20240391945A1, “NUCLEIC ACID SYNTHESIS METHOD USING SEGMENT-TYPE AMIDITE” (NITTO DENKO CORPORATION, priority 2020, published 2024).

The series can be described thus: pKa values in water of the activators. In kind it is physicochemical. Conditions: for pKa: read-out: pKa in H2O.

For `CCSc1nnn[nH]1` [ETT, 5-ethylthio-1H-tetrazole], the pKa (as a rule, the pH at which an ionisable group is half protonated) came out at 4.3. The same measure, in the same setting: under `c1ccc(CSc2nnn[nH]2)cc1` [BTT, 5-benzylthiotetrazole] stands 4.1. For the molecule saccharin 1-methylimidazole [SMI], the “pKa in H2O” value was 7.

Take `Cn1nnnc1S` [Activator 1-Me-MCT, 5-mercapto-1-methyltetrazole]: the pKa was 3.86. The same measure, in the same setting: under `Sc1nnnn1-c1ccccc1` [Activator 1-Ph-MCT, 5-mercapto-1-phenyltetrazole] stands 3.65.
